Laboratory results: PubChem BioAssay AID248 (DTP/NCI, 2004)
Several values for one entry are separate records, joined by “and”; a condition that tells them apart may be missing. Identical values can stand only once. Toxic doses and inconclusive results are not listed.

Test system: L1210 leukemia ip in BDF1 mice, survival T/C
Assay: NCI In Vivo Anticancer Drug Screen. Data for tumor model L1210 Leukemia (intraperitoneal) in B6D2F1 (BDF1) mice
Details: endpoint: mean survival time, higher = longer survival
How it was run: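 Mice bearing the transplanted tumor received compound or vehicle. Survival of the treated group was divided by that of the vehicle-treated control group to give the ratio.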

[1] = dose: 25.0 mg/kg/injection, schedule: Q01DX009 (ip), vehicle: saline with Tween-80
[2] = dose: 50.0 mg/kg/injection, schedule: Q01DX009 (ip), vehicle: saline with Tween-80
[3] = dose: 100.0 mg/kg/injection, schedule: Q01DX009 (ip), vehicle: saline with Tween-80
[4] = dose: 400.0 mg/kg/injection, schedule: Q01DX009 (ip), vehicle: saline with Tween-80
[5] = dose: 100.0 mg/kg/injection, schedule: Q01DX001 (ip), vehicle: saline
[6] = dose: 200.0 mg/kg/injection, schedule: Q01DX001 (ip), vehicle: saline
[7] = dose: 400.0 mg/kg/injection, schedule: Q01DX001 (ip), vehicle: saline
[8] = dose: 100.0 mg/kg/injection, schedule: Q01DX009 (ip), vehicle: Klucel (hydroxypropylcellulose) (HPC)
[9] = dose: 100.0 mg/kg/injection, schedule: Q04DX002 (ip), vehicle: saline with Tween-80
[10] = dose: 200.0 mg/kg/injection, schedule: Q04DX002 (ip), vehicle: saline with Tween-80
[11] = dose: 400.0 mg/kg/injection, schedule: Q04DX002 (ip), vehicle: saline with Tween-80
[12] = dose: 100.0 mg/kg/injection, schedule: Q04DX003 (ip), vehicle: saline with Tween-80
[13] = dose: 200.0 mg/kg/injection, schedule: Q01DX009 (ip), vehicle: saline with Tween-80

SMILES: O=C(CCCCC(=O)N/N=C/c1ccncc1)N/N=C/c1ccncc1
- T/C [1]: 94 % of control
- T/C [2]: 91 % of control
- T/C [3]: 96 % of control and 89 % of control
- T/C [4]: 91 % of control

SMILES: CC(=O)N(C)c1ccc(S(=O)(=O)F)cc1
- T/C (dose: 100.0 mg/kg/injection, schedule: Q01DX001 (ip), vehicle: Klucel (hydroxypropylcellulose) (HPC)): 103 % of control
- T/C (dose: 200.0 mg/kg/injection, schedule: Q01DX001 (ip), vehicle: Klucel (hydroxypropylcellulose) (HPC)): 103 % of control

SMILES: CC(=O)Oc1ccc(CCN(C)C2CC3CCC2(C)C3(C)C)cc1OC(C)=O (configuration not stated)
- T/C [5]: 110 % of control
- T/C [6]: 93 % of control
- T/C [7]: 100 % of control

SMILES: CCCC(C(=O)OCCN1CCCC12CCCCC2)C1CCCC1 (configuration not stated)
- T/C (dose: 13.0 mg/kg/injection, schedule: Q01DX Z (ip), vehicle: methylcellulose (MC)): 92 % of control
- T/C (dose: 20.0 mg/kg/injection, schedule: Q01DX Z (ip), vehicle: methylcellulose (MC)): 91 % of control
- T/C (dose: 30.0 mg/kg/injection, schedule: Q01DX Z (ip), vehicle: methylcellulose (MC)): 88 % of control

SMILES: COc1ccc(OC)c(NC(=O)Nc2ccccc2C(F)(F)F)c1
- T/C [8]: 102 % of control
- T/C (dose: 200.0 mg/kg/injection, schedule: Q01DX009 (ip), vehicle: Klucel (hydroxypropylcellulose) (HPC)): 89 % of control
- T/C (dose: 400.0 mg/kg/injection, schedule: Q01DX009 (ip), vehicle: Klucel (hydroxypropylcellulose) (HPC)): 95 % of control

SMILES: CC[n+]1ccc(/C=C\c2cccc([N+](=O)[O-])c2)cc1
- T/C (dose: 25.0 mg/kg/injection, schedule: Q01DX009 (ip), vehicle: Klucel (hydroxypropylcellulose) (HPC)): 91 % of control
- T/C (dose: 50.0 mg/kg/injection, schedule: Q01DX009 (ip), vehicle: Klucel (hydroxypropylcellulose) (HPC)): 91 % of control
- T/C [8]: 98 % of control
- T/C (dose: 100.0 mg/kg/injection, schedule: Q04DX003 (ip), vehicle: Klucel (hydroxypropylcellulose) (HPC)): 93 % of control

SMILES: CC1CCCN(P(c2ccccc2)N2CCCC(C)C2)C1 (configuration not stated)
- T/C (dose: 100.0 mg/kg/injection, schedule: Q04DX002 (sc), vehicle: olive oil, sesame oil, peanut oil): 97 % of control
- T/C (dose: 200.0 mg/kg/injection, schedule: Q04DX002 (sc), vehicle: olive oil, sesame oil, peanut oil): 100 % of control
- T/C (dose: 400.0 mg/kg/injection, schedule: Q04DX002 (sc), vehicle: olive oil, sesame oil, peanut oil): 100 % of control

SMILES: NC(=S)c1ncc(N)s1
- T/C [9]: 92 % of control
- T/C [10]: 100 % of control
- T/C [11]: 120 % of control

SMILES: O=C(Nc1ccc(C2=NCCN2)cc1)Nc1ccccc1NC(=O)Nc1ccc(C2=NCCN2)cc1
- T/C (dose: 3.12 mg/kg/injection, schedule: Q01DX Z (ip), vehicle: water): 100 % of control
- T/C (dose: 6.25 mg/kg/injection, schedule: Q01DX Z (ip), vehicle: water): 117 % of control
- T/C (dose: 12.5 mg/kg/injection, schedule: Q01DX Z (ip), vehicle: water): 105 % of control

SMILES: CO[C@H]1Nc2c(ccc(C)c2O)C(=O)N2C=C(/C=C/C(N)=O)C[C@@H]12
- T/C (dose: 0.05 mg/kg/injection, schedule: Q01DX015 (ip), vehicle: saline): 104 % of control
- T/C (dose: 0.08 mg/kg/injection, schedule: Q04DX003 (ip), vehicle: saline with Tween-80): 112 % of control
- T/C (dose: 0.1 mg/kg/injection, schedule: Q01DX015 (ip), vehicle: saline): 112 % of control
- T/C (dose: 0.16 mg/kg/injection, schedule: Q04DX003 (ip), vehicle: saline with Tween-80): 93 % of control
- T/C (dose: 0.2 mg/kg/injection, schedule: Q01DX015 (ip), vehicle: saline): 112 % of control
- T/C (dose: 0.21 mg/kg/injection, schedule: Q01DX015 (ip), vehicle: saline): 114 % of control
- T/C (dose: 0.25 mg/kg/injection, schedule: Q01DX001 (ip), vehicle: saline): 117 % of control
- T/C (dose: 0.36 mg/kg/injection, schedule: Q01DX015 (ip), vehicle: saline): 118 % of control
- T/C (dose: 0.4 mg/kg/injection, schedule: Q01DX015 (ip), vehicle: saline): 110 % of control
- T/C (dose: 0.5 mg/kg/injection, schedule: Q01DX001 (ip), vehicle: saline): 117 % of control
- T/C (dose: 0.6 mg/kg/injection, schedule: Q01DX015 (ip), vehicle: saline): 115 % of control and 117 % of control
- T/C (dose: 1.0 mg/kg/injection, schedule: Q01DX015 (ip), vehicle: saline): 98 % of control
- T/C (dose: 1.3 mg/kg/injection, schedule: Q01DX001 (ip), vehicle: saline): 156 % of control
- T/C (dose: 25.0 micrograms/kg/injection, schedule: Q04DX003 (ip), vehicle: saline): 121 % of control
- T/C (dose: 50.0 micrograms/kg/injection, schedule: Q04DX003 (ip), vehicle: saline): 102 % of control
- T/C (dose: 100.0 micrograms/kg/injection, schedule: Q04DX003 (ip), vehicle: saline): 114 % of control
- T/C (dose: 200.0 micrograms/kg/injection, schedule: Q04DX003 (ip), vehicle: saline): 107 % of control

SMILES: O=C(NC(=S)Nc1cccc(O)c1)c1ccco1
- T/C [3]: 98 % of control
- T/C [12]: 104 % of control
- T/C [13]: 115 % of control
- T/C (dose: 200.0 mg/kg/injection, schedule: Q04DX003 (ip), vehicle: saline with Tween-80): 107 % of control
- T/C [4]: 95 % of control
- T/C (dose: 400.0 mg/kg/injection, schedule: Q04DX003 (ip), vehicle: saline with Tween-80): 102 % of control

SMILES: CCCCCCCCCCCCCCCCCCNC(=O)c1c(Br)c(Br)cc(Br)c1C(=O)O
- T/C (dose: 25.0 mg/kg/injection, schedule: Q04DX002 (ip), vehicle: Klucel (hydroxypropylcellulose) (HPC)): 104 % of control
- T/C (dose: 50.0 mg/kg/injection, schedule: Q04DX002 (ip), vehicle: Klucel (hydroxypropylcellulose) (HPC)): 93 % of control
- T/C (dose: 100.0 mg/kg/injection, schedule: Q04DX002 (ip), vehicle: Klucel (hydroxypropylcellulose) (HPC)): 96 % of control
- T/C (dose: 200.0 mg/kg/injection, schedule: Q04DX002 (ip), vehicle: Klucel (hydroxypropylcellulose) (HPC)): 98 % of control and 87 % of control
- T/C (dose: 400.0 mg/kg/injection, schedule: Q04DX002 (ip), vehicle: Klucel (hydroxypropylcellulose) (HPC)): 90 % of control

SMILES: O=C1c2ccccc2C(=O)N1NS(=O)c1ccccc1 (configuration not stated)
- T/C [9]: 93 % of control
- T/C [10]: 104 % of control
- T/C [11]: 101 % of control

SMILES: C=CCOc1ccccc1C
- T/C (dose: 50.0 mg/kg/injection, schedule: Q01DX001 (ip), vehicle: saline): 98 % of control
- T/C [5]: 95 % of control
- T/C [6]: 97 % of control

SMILES: c1cncc(C2SCCCS2)c1
- T/C (dose: 100.0 mg/kg/injection, schedule: Q04DX002 (ip), vehicle: DMSO): 87 % of control
- T/C (dose: 200.0 mg/kg/injection, schedule: Q04DX002 (ip), vehicle: DMSO): 87 % of control

SMILES: C=C(C)CSC#N
- T/C [1]: 101 % of control
- T/C [2]: 96 % of control
- T/C [3]: 101 % of control

SMILES: O=c1oc(-c2ccccc2)c(-c2ccccc2)c(-c2ccccc2)c1-c1ccccc1
- T/C (dose: 100.0 mg/kg/injection, schedule: Q01DX001 (ip), vehicle: saline with Tween-80): 103 % of control
- T/C (dose: 200.0 mg/kg/injection, schedule: Q01DX001 (ip), vehicle: saline with Tween-80): 91 % of control
- T/C (dose: 400.0 mg/kg/injection, schedule: Q01DX001 (ip), vehicle: saline with Tween-80): 91 % of control

SMILES: O=C1c2ccccc2C(=O)c2c(O)ccc(O)c21
- T/C (dose: 50.0 mg/kg/injection, schedule: Q01DX009 (ip), vehicle: saline): 94 % of control
- T/C [3]: 106 % of control
- T/C (dose: 100.0 mg/kg/injection, schedule: Q01DX009 (ip), vehicle: saline): 102 % of control
- T/C [13]: 101 % of control
- T/C (dose: 200.0 mg/kg/injection, schedule: Q01DX009 (ip), vehicle: saline): 102 % of control
- T/C [4]: 101 % of control

SMILES: NC(=O)OCC(O)COc1ccc(Cl)cc1 (configuration not stated)
- T/C [5]: 95 % of control
- T/C [6]: 97 % of control
- T/C [7]: 95 % of control

SMILES: CNC(=O)Nc1nnnc2ccccc12
- T/C (dose: 25.0 mg/kg/injection, schedule: Q04DX003 (ip), vehicle: saline with Tween-80): 92 % of control
- T/C (dose: 50.0 mg/kg/injection, schedule: Q04DX003 (ip), vehicle: saline with Tween-80): 94 % of control
- T/C [12]: 89 % of control
